Assay results from patent US4260613A, “Pyridoxine derivatives” (Crinos Industria Farmacobiologica S.p.A., priority 1978, dated 1981).

Legend:
Assay type in all cases: in vivo
rat = test: Ulcer-causing activity, UD50 per os in the rat (gastric lesions 7 h after treatment); conditions: in words, vs 2-(4-isobutylphenyl)-propionic acid
Experimental: The ulcer-causing activity has been determined by administering the substances per os to rats which have fasted 18 hours and evaluating the presence of gastric lesions 7 hours after the treatment. The UD50 has been determined according to Litchfield and Wilcoxon (J. Pharmacol. Exp. Ther. 96, 99, 1949).

mouse = test: Acute toxicity, LD50 per os in the mouse (sole dose, 18 h fasting); conditions: in words, vs 2-(4-isobutylphenyl)-propionic acid
Experimental: The acute toxicity has been determined by administering the substances per os in a sole dose to the mouse after 18 hours of fasting. The LD50 has been determined according to Litchfield and Wilcoxon (J. Pharmacol. Exp. Ther. 96, 99, 1949).

[1] = tested on: caraganin-edema, normal rat; test: Caraganin-edema test according to Winter et al in the normal rat (anti-inflammatory activity); conditions: 25 mg/kg per os, 3hrs, vs controls
Experimental: Caraganin-edema test according to Winter et al (Proc. Soc. Exp. Biol. Med., 111, 544, 1962) in the normal rat. The anti-inflammatory activity is expressed as a percentage of inhibition, after 3 and 6 hours, with respect to the controls.

Compound | ulcer-causing activity with respect to the free acid (rat) | toxicity with respect to the free acid (mouse) | ANTI-INFLAMMATORY Inhibition % [1] [%]
Cc1ncc(COC(=O)C(C)c2ccc(CC(C)C)cc2)c2c1OC(C)(C)OC2 (centres unmarked) [2-(4-isobutylphenyl)-propionic isopropylidene-pyridoxine 5-ester] | lower toxicity and ulcer-causing activity | lower toxicity | –
Cc1ncc(COC(=O)C(C)c2ccc(CC(C)C)cc2)c(CO)c1O (centres unmarked) [2-(4-isobutyl-phenyl)-propionic pyridoxine 5-ester] | lower toxicity and ulcer-causing activity | lower toxicity | 43.6
